# Measured values reported in a melting point compilation (Tetko et al.; mined from patent text by program, amines drawn as free bases though some values may be those of a salt).
# Non-standard residues stand in square brackets, D forms with d. Residues, ends and D or L forms follow the SMILES beside them. *: point of attachment. 1Nal = N[C@@H](Cc1cccc2ccccc12)C(=O)O; Leu(ol) = CC(C)C[C@H](N)CO; Cbz = O=C(OCc1ccccc1)*
row,Structure (SMILES),melting point [°C]
1,COCCNC(=O)c1ccc(C(=O)NS(=O)(=O)c2ccc(CCNC(=O)CCc3ccc(OC)c(OC)c3)cc2)cn1,87 to 89
2,"OC1CCc2c(Br)cccc21 (single isomer, unassigned; (-))",81
3,CC(C)C[C@@H](CO)NC(=O)[C@H](Cc1c[nH]cn1)NC(=O)[C@H](Cc1cccc2ccccc12)NC(=O)OCc1ccccc1 (Cbz-[1Nal]-His-[Leu(ol)]),157 to 159
4,COC(=O)CCCCCCCCCCCCCCCO,54.2
5,CNC(=O)On1cc(Cl)cn1,125
6,Cc1nccn1-c1cccc(O)c1,178 to 181
7,COc1ccc2sc(C(N)=O)c(S(=O)(=O)C(C)C)c2c1,169 to 170
8,CC(C)(C)C(O)(CCCOc1ccccc1)Cn1cncn1 (stereo not drawn),106
9,N#CC1=C(C#N)Sc2nc3cc([N+](=O)[O-])c(Cl)cc3nc2S1,228 to 230
10,Nc1nc(=O)n(C(=S)Oc2ccccc2)cc1F,113 to 116
11,CCOc1nc2ccc(Cl)cc2c(-c2ccccc2)c1NC(=O)Nc1ccc(F)cc1F,238 to 239
12,N#CC(N)=C(C#N)N=Cc1cnn(-c2ncc(C(F)(F)F)cc2Cl)n1,220 to 222
13,CC(=O)OCC(=O)C1(OC(C)=O)C(C)CC2C3CC(Cl)C4=CC(=O)C=CC4(C)C34OC4CC21C (stereo not drawn),211
14,Cc1nc(-c2ncn3c2[C@@H]2CCCN2C(=O)c2c(Cl)cccc2-3)n(C)n1,221 to 222
15,COC(=O)C1(C(C)C)Oc2c(OC)cccc2C1=O (stereo not drawn),87 to 88
16,O=[N+]([O-])c1cc(C2=NOC(c3cc(C(F)(F)F)cc(C(F)(F)F)c3)(C(F)(F)F)C2)ccc1N1C=NNN1 (stereo not drawn),147 to 149
17,CC(C)(C)c1ccc(-c2cc(N3CCOCC3)cc(=O)o2)cc1,230 to 232
18,Cn1c(C(F)(F)F)ccc(-c2c(F)cc(Cl)c3oc(CO)cc23)c1=O,145 to 147
19,CCCCCCC(C)(C)c1ccc(C2=CCCN(C)C2)c(O)c1,126 to 127
20,CCCCCCCCCCNCC(O)CO (stereo not drawn),65 to 67
21,C=CCSc1nc(=O)[nH]cc1F,150 to 152
22,O=C1NC(CC(=O)C2CC2)c2cccn2-c2sccc21 (stereo not drawn),200
23,CCOc1cc(-n2nc(C)c(Cl)c2C)c(F)cc1Cl,106 to 108
24,O=C(c1ccc(I)cc1)c1ccc(-c2ccc(Cl)cc2)cc1,218
25,Cc1ccc(Cn2nc(C(=O)O)c(C)c2-c2ccc(Cl)cc2)cc1Cl,162

row,Structure (SMILES),melting point [°C]
1,NC(=O)N(O)Cc1cccc(C(O)C#Cc2cccnc2)c1 (stereo not drawn),153
2,Fc1ccc(NC(=S)Nc2ncccc2OCc2c(F)cccc2Cl)cc1,146 to 148
3,CCCCn1ncc(/C=C(\Cc2cc3c(cc2OC)OCO3)C(=O)O)c1-c1cc(Cl)c(C)cc1OCc1ccccc1C(=O)O,114 to 116
4,CNc1nc(C(N)=O)c(-c2ccncc2)s1,212 to 213
5,CCCCc1nc(SC)c(C(=O)O)n1Cc1ccc(-c2nc3ccccn3c2-c2nnn[nH]2)cc1,160
6,CCCCCCCCCCCCCCCCOC[C@@H]1OCCC[C@H]1OP(=O)([O-])OCC[N+](C)(C)C (relative stereo),220 to 224
7,CN(C)CCOC(=O)CCc1c(C(=O)OCCN(C)C)[nH]c2cc(Cl)cc(Cl)c12,95 to 97
8,CC1=CC(NC(=O)OC(C)(C)C)C(C(=O)O)CC1 (stereo not drawn),132 to 136
9,COc1cc(NC(C)=O)ccc1N1C(=O)C(C)(c2ccccc2Cl)c2cc(Cl)ccc21 (stereo not drawn),83
10,CC(C)(C)C(NC(=O)c1ccc(Cl)cc1)NC(=NC#N)NCc1cccnc1 (stereo not drawn),188 to 189
11,COc1ccc(C(=O)c2ccccc2)c(S)c1,74 to 76
12,CC(C)n1nc(-c2c(F)nc(N)nc2-c2ccccc2)ccc1=O,231 to 232
13,CC(C)n1nc(-c2c(-c3ccccc3)nn3ccc(C(=O)NCc4cccnc4)cc23)ccc1=O,192 to 193
14,COc1ccc(-c2cc(F)c(F)cc2-c2ccc(S(N)(=O)=O)cc2)cc1F,132 to 133
15,COc1ccc(CN2Cc3cncn3C(c3ccc(Br)cc3)C2=O)cc1 (stereo not drawn),123 to 124
16,O=C(O)COc1ccc(-c2ccc(-c3c(Cc4ccccc4)sc4ccccc34)cc2)cc1Br,150 to 152
17,CN1CCN(c2cccc3ccc(NCc4cccc5ccccc45)cc23)CC1,140 to 141
18,CNC(=NCCSCc1ncccc1OC)NC#N,122 to 123
19,COc1cccc2c(=O)c(C(=O)C3CCCCC3)c[nH]c12,168 to 170
20,CC(C)(C)c1ccc(C(=O)Nc2cn3c4c(ccc3n2)OCC4)cc1,266 to 268
21,O=C(CCCCl)c1ccc2c(c1)Cc1cc(C(=O)CCCCl)ccc1S2,115 to 116
22,C#Cc1cccc(Nc2c(C#N)cnc3ccc(OCCOC)c(OCCOC)c23)c1,150 to 153
23,CC(NCCN(CCNC(C)=C1C(=O)CC(C)(C)CC1=O)C(=O)CCC(=O)O)=C1C(=O)CC(C)(C)CC1=O,65 to 68
24,COC(=O)c1ccc2oc(=O)n(Cc3cccc(-c4ncc(OCCCN(C)C)cn4)c3)c2c1,125
25,CC(=O)NCC[C@@H]1CCc2ccc3nn(C)c(Cl)c3c21,168 to 171

row,Structure (SMILES),melting point [°C]
1,CCCN(c1ccncc1F)n1c(C)cc2ccccc21,5
2,CCCCc1nc2c(N)nc3ccc(OCc4ccccc4)cc3c2n1C,198 to 199
3,CC1(C)CCC(C)(C)c2cc(-c3cc(-c4ccc(C=O)cc4)on3)ccc21,179 to 180
4,CS(=O)(=O)c1ccc(-n2nc(C(F)(F)F)cc2-c2ccc(-c3cscn3)c(Cl)c2)cc1,128 to 130
5,N#CCCn1ncccc1=O,75 to 76
6,O=C(O)CCC(=O)N1CCc2cc(S(=O)(=O)N3CCN(c4cccc(Cl)c4)CC3)ccc21,228 to 230
7,C=CCNC(=O)N1CC(Oc2ccc(Br)cc2)C1,100 to 101
8,COc1cnc(CSc2nc3cc(OC(F)(F)C(F)F)ccc3[nH]2)cc1OC,125 to 127
9,CCCCCc1c(C(C)C)nc(C(C)C)c(CO)c1-c1ccoc1,98 to 100
10,Cc1nnc(-c2ccc(Cl)c([N+](=O)[O-])c2)[nH]1,168
11,CCOC(=O)N1CCC(=C2c3ccc(Cl)cc3C=Cc3cccnc32)CC1,155 to 156
12,O=C(c1ccccc1)c1cc2c([N+](=O)[O-])c(O)c(O)cc2oc1=O,94 to 96
13,CCOc1ccc(Oc2ccc(OCc3ccccc3)cc2)c([N+](=O)[O-])c1,96 to 96.5
14,O=c1c(N2CCCNCC2)nc2ccccc2n1-c1cccc(F)c1,128 to 129
15,CS(=O)(=O)c1ccc(C(CC2CCCC2)C(=O)Nc2nc3ccccc3[nH]2)cc1C#N (stereo not drawn),148 to 152
16,COC1C=C2CC(OC(C)=O)CCC2(C)C2CCC3(C)C(=O)CCC3C12 (stereo not drawn),175 to 178
17,O=C1NCN(c2ccccc2)C12CCN(CC1CCc3ccccc3O1)CC2 (stereo not drawn),192 to 194
18,CS(=O)(=O)c1ccc(Cn2ccc3c4c(N)nc(N)nc4ccc32)cc1,248
19,Cc1c(Br)c(NC(=O)CC(C)(C)C)c(C)c2c1OCC2c1ccc(C(C)C)cc1 (stereo not drawn),174 to 175
20,CC12CC(=O)C3C(CCC4CC(O)CCC43C)C1CCC2C(=O)OCC#N (stereo not drawn),142 to 146
21,CC(C)OC(=O)C(C)n1c(C(F)(F)F)nc2cc(F)c(-n3c(=O)cc(C(F)(F)F)n(C)c3=O)cc21 (stereo not drawn),133 to 135
22,CC1=CCC(=Nc2cc([N+](=O)[O-])ccc2O)S1,202 to 204
23,Cc1ccc(S(=O)(=O)OCCCc2c[nH]c3ccc(F)cc23)cc1,74
24,CC1CCC(C)N1CCNc1ccnc2cc(Cl)ccc12 (stereo not drawn),127 to 130
25,Cc1ccc(CNc2nc(Cl)nc(Nc3ccc4[nH]c(=O)[nH]c4c3)n2)o1,164 to 166

row,Structure (SMILES),melting point [°C]
1,Nc1ccc(C23CC(C2)C(=O)N(C2CCCCC2)C3=O)cc1,139
2,CCOC(=O)C1=C(C)Nc2ncnc(OC(C)C)c2C1c1ccccc1C(F)(F)F (stereo not drawn),155
3,COc1ccc(-c2ccc(C)nc2-c2ccc(OCCN3CCOCC3)cc2)cc1,66 to 67
4,CN(C(=O)C(C#N)C(=O)c1nn(-c2ccccc2)c2c1COc1ccccc1-2)c1ccccc1 (stereo not drawn),183 to 184
5,CC1Oc2ccc(CN3CCC(c4ccc(C(F)(F)F)cc4)CC3)cc2NC1=O (stereo not drawn),217 to 218
6,N#Cc1cnn2c(C(F)(F)F)cc(-c3ccc(F)c(C(F)(F)F)c3)nc12,204
7,CN(C)CCSc1nc2ccccc2n1CCc1ccccc1,38 to 39
8,COc1ccc(-c2cc(N3CCN(C(=O)c4cc(S(N)(=O)=O)c(Cl)cc4Cl)CC3)nc(C)n2)cc1OC,150 to 160
9,COC(=O)c1ccc(NC(=O)OCc2ccccc2)c(Cl)c1,108
10,O=C(C[C@H](NC(=O)C(F)(F)F)C(=O)O)c1ccc2c(c1)Cc1ccccc1-2,111 to 115
11,Nc1nc(OCC(F)(F)F)cc(C(F)(F)F)n1,108 to 110
12,COc1ccc(N2CCN(C)CC2)cc1-c1cnn2c(N)c(-c3cccc(Cl)c3)c(C)nc12,116 to 121
13,COc1cc2c(cc1OC)CC(N(C)CCCN1CCc3cc4c(cc3CC1=O)OCCO4)CC2 (stereo not drawn),152 to 157
14,COc1ccc(-c2ccc3nccn3c2)cc1-c1ccc2nonc2c1,190 to 196
15,O=C(NCc1ccccc1)NOCC(O)CN1CCCCC1 (stereo not drawn),100 to 101
16,Fc1cccc(C(F)(F)F)c1N(CC1CC1)C1=NCCN1,126 to 127
17,O=C(O)C(=O)CC(=O)c1cccn1Cc1ccccc1-c1ccccc1,150 to 152
18,Cc1cc(NC(=O)NC2=C(c3ccccc3)c3ccccc3CS2)cc(C)c1O,227 to 228
19,CCOC(=O)NCC(O)c1ccc(OC)c(OC)c1 (stereo not drawn),90 to 92
20,CC(C)(C)OC(=O)N[C@@H](COS(C)(=O)=O)Cc1ccccc1,119 to 120
21,COC(=O)C1=C(C)NC(C)=C(C(C)=O)C1c1ccccc1Br (stereo not drawn),146 to 148
22,COc1ccc(C2=NNC(=O)CS2)c(OC)c1,162 to 164
23,CCCCCCCCCCCCSCN(O)CSCCCCCCCCCCCC,63 to 65
